The source made the active and inactive calls.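 The calls were made as follows: active = chemicals rated mutagenic or weakly mutagenic in the Salmonella bacterial test by one literature review, or positive overall by another; inconclusive = no clear call, values can overlap the other calls; inactive = the rest.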
Tested on: Salmonella typhimurium Ames mutagenicity, literature compiled
Test: DSSTox (CPDBAS) Carcinogenic Potency Database Salmonella Mutagenicity
Summary of the method: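 Calls derive from published evaluations rather than new testing; overall "positive" in EPA Gene-Tox, or "mutagenic"/"weakly mutagenic" per Zeiger, counts as active.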

| Compound | outcome |
| --- | --- |
| Cc1c(N)cccc1N | active; inactive |
| CC(C)CON=O | active; inactive |
| O=C/C(Cl)=C(/Cl)C(=O)O | active |
| CC(O)CO (stereo not drawn) | inactive |
| Clc1ccc2c(c1)Oc1ccc(Cl)cc1O2 | inactive |
| COC(=O)C1=CCCN(N=O)C1 | active |
| O=[N+]([O-])c1ccc(-c2cscn2)o1 | active; inactive |
| O=C1NC(=O)C(c2ccccc2)(c2ccccc2)N1 | inactive |
| CN(C)[C@@H]1C(=O)C(C(N)=O)=C(O)[C@@]2(O)C(=O)C3=C(O)c4c(O)cccc4[C@@](C)(O)[C@H]3[C@H](O)[C@@H]12 | inactive |
| CCCCCCN(N=O)C(N)=O | active |
| CC(Cl)Cl | inactive; active |
| C=CC(O)c1ccc2c(c1)OCO2 (stereo not drawn) | inactive |
| O=CNc1nc(-c2ccc([N+](=O)[O-])o2)cs1 | active; inactive |
| CC(C)Oc1ccccc1OC(=O)N(C)N=O | active |
| CCCCN(CCCC)N=O | active; inactive |
| CCCCCCCCCCCCN(C)N=O | active |
| [O]=[Mo](=[O])=[O] | inactive; active |
| O=Nc1ccc(Nc2ccccc2)cc1 | active |
| CCCCOC(=O)c1ccccc1C(=O)OCc1ccccc1 | inactive |
| NC(=O)N/N=C/c1ccc([N+](=O)[O-])o1 | active |
| O=CC1CO1 (stereo not drawn) | active |
| COc1ccc([N+](=O)[O-])cc1N | active; inactive |
| Cc1ccc(OP(=O)(Oc2ccc(C)cc2)Oc2ccc(C)cc2)cc1 | inactive; active |

| Compound | outcome |
| --- | --- |
| CCOC(=O)CC(SP(=O)(OC)OC)C(=O)OCC (stereo not drawn) | inactive |
| C[C@]12C=CC(=O)C=C1CC[C@@H]1[C@@H]2C(=O)C[C@@]2(C)[C@H]1CC[C@]2(O)C(=O)CO | active |
| C/C=C/C=C/C=O | active |
| OCC(CO)(CBr)CBr | active |
| Cc1cccc(N)c1 | inactive |
| C=C1C/C(=C/C)C(=O)O[C@@H]2CCN3CC=C(COC(=O)[C@@]1(O)CO)[C@H]23 | active; inactive |
| O=C1C2(Cl)C3(Cl)C4(Cl)C(Cl)(Cl)C5(Cl)C3(Cl)C1(Cl)C5(Cl)C24Cl (stereo not drawn) | inactive; active |
| Nc1ccc([N+](=O)[O-])cc1N | active |
| O=NN1CC=CCC1 | active |
| Nc1ccc(Oc2ccc(N)cc2)cc1 | active |
| [O-]/[N+](=N\O)c1ccccc1 | active; inactive |
| CCCCCCc1ccc(O)cc1O | inactive; active |
| CC(=O)Nc1ccc(N=Nc2cc(C)ccc2O)cc1 | active |
| CCOP(=S)(OCC)Oc1cc(C)nc(C(C)C)n1 | inactive; active |
| O=C(O)CN(CC(=O)O)CC(=O)O | inactive; active |
| O=C(O)[C@@H]1[C@H](C(=O)O)[C@@]2(Cl)C(Cl)=C(Cl)[C@]1(Cl)C2(Cl)Cl | inactive; active |
| OCC(O)CCl (stereo not drawn) | active; inactive |
| CCN(C)N=O | active |
| O=C(N[C@H](CO)[C@H](O)c1ccc([N+](=O)[O-])cc1)C(Cl)Cl | inactive |
| Cc1c(N)nc(C)c2c1[nH]c1ccccc12 | active |
| COc1cc(-c2ccc(N=C=O)c(OC)c2)ccc1N=C=O | active |
| Cc1cnc2ccc3c(nc(N)n3C)c2n1 | active |
| NC(N)=O | inactive; active |

| Compound | outcome |
| --- | --- |
| Nc1ccc([N+](=O)[O-])cc1O | active |
| CC(O)CN(CC(C)O)CC(C)O (stereo not drawn) | inactive; active |
| ClC1=C(Cl)[C@]2(Cl)[C@@H]3[C@H]4C[C@H]([C@@H]5O[C@H]45)[C@@H]3[C@@]1(Cl)C2(Cl)Cl | inactive; active |
| Cc1cc(O)c2c(c1O)C(=O)C13C(=C2O)C(=O)C2C(O)C1C1C(O)C3C(=O)C3=C(O)c4c(O)cc(C)c(O)c4C(=O)C321 (stereo not drawn) | inactive; active |
| COc1c2occc2cc2ccc(=O)oc12 | active |
| C[C@]12C=CC(=O)C=C1CC[C@@H]1[C@@H]2[C@@H](O)C[C@@]2(C)[C@H]1CC[C@]2(O)C(=O)CO | inactive; active |
| OO | active |
| CN(N=O)c1ccncc1 | inactive; active |
| C=CC1CC=CCC1 (stereo not drawn) | inactive |
| Clc1nc(Cl)nc(Nc2ccccc2Cl)n1 | inactive |
| CCc1cc(C(N)=S)ccn1 | inactive; active |
| Cc1cccc2cccnc12 | active |
| CN(C)N=Nc1ccccc1 | active |
| CC1CCC(C(C)C)C(O)C1 (stereo not drawn) | inactive; active |
| CCC(Cl)CCC(Cl)C(Cl)CC(Cl)C(Cl)C(Cl)CCl (stereo not drawn) | inactive; active |
| C=C(Cl)Cl | active; inactive |
| O=NN1CCOCC1 | active |
| NC1CCCCC1 | inactive; active |
| CCN(CC)C(=S)S | inactive |
| CC1CN(N=O)CC(C)N1N=O (stereo not drawn) | active |
| CCn1cc(C(=O)O)c(=O)c2ccc(C)nc21 | inactive |
| C/C=C1/C[C@@H](C)[C@](O)(CO)C(=O)OCC2=CCN3CC[C@@H](OC1=O)[C@@H]23 | active; inactive |
| CN(C)c1ccc(Cc2ccc(N(C)C)cc2)cc1 | active |

| Compound | outcome |
| --- | --- |
| COc1ccc(C(Cl)=C(c2ccc(OC)cc2)c2ccc(OC)cc2)cc1 | inactive |
| O=S1(=O)OCCO1 | inactive |
| C[N+](=O)[O-] | inactive; active |
| O=C(O)c1[nH]n(-c2ccc(S(=O)(=O)O)cc2)c(=O)c1N=Nc1ccc(S(=O)(=O)O)cc1 | inactive; active |
| CC(=O)NNc1ccccc1 | active |
| CC(=O)O[C@@H]1[C@@H](O)C2OC3C=C(C)C(=O)C(O)[C@@]3(CO)[C@]1(C)[C@]21CO1 (stereo partly drawn) | inactive; active |
| CCCCCC(N)=O | inactive; active |
| CN(C)C=O | inactive |
| ClC1=C(Cl)[C@]2(Cl)[C@@H]3[C@@H]4C[C@@H]([C@H]5O[C@@H]45)[C@@H]3[C@@]1(Cl)C2(Cl)Cl | inactive; active |
| CC(N)Cc1ccccc1 (stereo not drawn) | inactive |
| NNCCc1ccccc1 | active; inactive |
| CCOC(N)=O | active; inactive |
| CNC(=S)N(C)C | inactive; active |
| COCCl | inactive; active |
| CC(O)CCl (stereo not drawn) | active |
| ClC/C=C/CCl | active; inactive |
| NCCc1ccc(O)c(O)c1 | active |
| Oc1cc2c(cc1O)[C@H]1c3ccc(O)c(O)c3OC[C@@]1(O)C2 | inactive; active |
| CC1(C)S[C@@H]2[C@H](NC(=O)COc3ccccc3)C(=O)N2[C@H]1C(=O)O | inactive; active |
| C=C(F)F | active |
| Nc1ccc(Cc2ccc(N)cc2)cc1 | active |
| ClC1C(Cl)C(Cl)C(Cl)C(Cl)C1Cl (stereo not drawn) | inactive; active |
| C[C@](N)(Cc1ccc(O)c(O)c1)C(=O)O | inactive |

| Compound | outcome |
| --- | --- |
| NCCS(=O)(=O)O | inactive; active |
| O=C(O)c1ccc([N+](=O)[O-])cc1 | active |
| O=C(CCl)c1ccccc1 | inactive |
| FC(F)OC(F)(F)C(F)Cl (stereo not drawn) | inactive; active |
| OCCBr | active |
| Nc1cc(S(=O)(=O)O)cc2cc(S(=O)(=O)O)c(N=Nc3ccc(-c4ccc(N=Nc5c(S(=O)(=O)O)cc6cc(S(=O)(=O)O)cc(N)c6c5O)cc4)cc3)c(O)c12 | active |
| CCNc1nc(Cl)nc(NC(C)C)n1 | inactive; active |
| [O]=[Cr](=[O])([OH])[O][Cr](=[O])(=[O])[OH] | active |
| OCCN(CCO)c1nc(-c2cccs2)nc2ccccc12 | inactive |
| NCCNc1cccc2ccccc12 | active |
| O=C1O[C@H]([C@@H](O)CO)C(O)=C1O | inactive |
| CN(C)P(=O)(N(C)C)N(C)C | inactive |
| OC[C@@H](O)[C@@H](O)[C@H](O)[C@H](O)CO | inactive; active |
| CN(C)c1ccc(C(=N)c2ccc(N(C)C)cc2)cc1 | active |
| Nc1c(Cl)c(Cl)nc(C(=O)O)c1Cl | inactive; active |
| COc1ccc(N)cc1N | active; inactive |
| [Na+] | inactive |
| C=O | active; inactive |
| Cc1ccc(N=Nc2c(O)ccc3ccccc23)c([N+](=O)[O-])c1 | active; inactive |
| Nc1ccc(Sc2ccc(N)cc2)cc1 | active; inactive |
| O=C1N(CCO)CCN1/N=C/c1ccc([N+](=O)[O-])o1 | active |
| Nc1c(Cl)cc([N+](=O)[O-])cc1Cl | active |
| O | inactive |

| Compound | outcome |
| --- | --- |
| Cc1cc(N=Nc2ccccc2C)ccc1N | active |
| CN(C)C(=S)SSC(=S)N(C)C | active |
| O=NN1CCCN(N=O)CC1 | active |
| CC(C)=CCl | active; inactive |
| c1ccc2c(c1)[nH]c1cnccc12 | active |
| N=C1C=CC(=C(c2ccc(N)cc2)c2ccc(N)cc2)C=C1 | active |
| Cc1ncc[nH]1 | inactive |
| O=[O+][O-] | active; inactive |
| ClC1=C(Cl)[C@@]2(Cl)[C@@H]3[C@@H](Cl)[C@H](Cl)C[C@@H]3C1(Cl)C2(Cl)Cl | inactive; active |
| Clc1cccc(-c2ccc(Cl)c(Cl)c2Cl)c1Cl | inactive; active |
| Nc1ncn[nH]1 | inactive; active |
| CC(=O)c1ccc(S(=O)(=O)NC(=O)NC2CCCCC2)cc1 | inactive |
| CN(CCc1ccccc1)N=O | active |
| CN1CCCC1=O | inactive; active |
| CCNC(=O)Nc1ncc([N+](=O)[O-])s1 | active; inactive |
| CN(C)c1ccc(N=Nc2ccccc2)cc1 | active; inactive |
| Cc1ccc2c(c1N)C(=O)c1ccccc1C2=O | active |
| COc1cc(-c2ccc(N=Nc3c(S(=O)(=O)O)cc4cc(S(=O)(=O)O)cc(N)c4c3O)c(OC)c2)ccc1N=Nc1c(S(=O)(=O)O)cc2cc(S(=O)(=O)O)cc(N)c2c1O | active |
